From patent US6706663B2, “Herbicidal 3-heterocyclic substituted benzisothiazole and benzisoxazole compounds” (Wyeth, priority 2000, dated 2004)

Legend:
[1] = tested on: CHEAL (Chenopodium album); assay: Postemergence herbicidal evaluation; type: in vivo, L.; conditions: rate 0.0620 kg/ha
In short: (§1)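 Visual 0–9 injury scores versus control plants, covering stand, vigour, malformation, size, chlorosis and general appearance, taken four to five weeks post-spray and averaged over replicate tests. Plants were sprayed at roughly two weeks old and held on greenhouse benches.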

[2] = tested on: CASOB (Cassia obtusifolia); assay: Postemergence herbicidal evaluation; type: in vivo, L.; conditions: rate 0.0620 kg/ha
In short: as §1

[3] = tested on: AMBEL (Ambrosia artemisifolia); assay: Postemergence herbicidal evaluation; type: in vivo, L.; conditions: rate 0.0620 kg/ha
In short: as §1

ZEAMX (Corn, Field) [4] = assay: Postemergence herbicidal evaluation; type: in vivo, Zea mays, L.; conditions: rate 0.0620 kg/ha
In short: as §1

ZEAMX (Corn, Field) [5] = assay: Preemergence herbicidal evaluation; type: in vivo, Zea mays, L.; conditions: Rate 0.2500 kg/ha; preemergence; rated 4-5 weeks after treatment
[6] = tested on: IPOHE (Ipomoea hederacea); assay: Preemergence herbicidal evaluation; type: in vivo, (L.) Jacq.; conditions: Rate 0.2500 kg/ha; preemergence; rated 4-5 weeks after treatment
[7] = tested on: TRZAWR (Wheat, Winter, cv Riband); assay: Preemergence herbicidal evaluation; type: in vivo, Triticum aestivum; conditions: Rate 0.2500 kg/ha; preemergence; rated 4-5 weeks after treatment
In short: (§2)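 Steps: mix seeds with potting soil; plant on ~1 inch soil per cup; spray compound in aqueous acetone; hold on greenhouse benches with routine watering; rate 0–9 visually against control at 4–5 weeks.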

ORYSAT (Rice, Tebonnet) [8] = assay: Flooded paddy, post-transplant rice tolerance; type: in vivo, Oryza sativa, (L.) Tebonnet; conditions: flooded paddy, post-transplant rice; rate 0.1250 kg/ha; rated 3-4 weeks after treatment; 0-9 rating scale
In short: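 Visual 0-9 rating against a control, covering stand, vigor, malformation, size, chlorosis and overall appearance. Treatment was applied after transplanting paired ten-day-old seedlings into flooded silt loam, with water kept 1.5 to 3 cm deep on greenhouse benches.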

[9] = tested on: IPOHE (Ipomoea hederacea); assay: Postemergence herbicidal evaluation; type: in vivo, (L.) Jacq.; conditions: rate 0.0620 kg/ha
In short: as §1

SETVI (Setaria viridis) [10] = assay: Postemergence herbicidal evaluation; type: in vivo, (L.) Beau; conditions: rate 0.0620 kg/ha
In short: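 First, seedlings are raised in flats for about two weeks. Next, compound dispersed in 50/50 acetone/water with 0.5% TWEEN 20 is sprayed at 40 psi to deliver about 0.0040–1.000 kg/ha. Plants are then maintained in the greenhouse and rated 0-9 after four to five weeks.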

CYPIR (Cyperus iria) = assay: Flooded paddy, preemergence weed control; type: in vivo; conditions: rate 0.1250 kg/ha, rated 3-4 weeks after treatment, 0-9 rating scale
In short: (§3)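 Ratings of 0-9 reflect visual comparison with a control for stand, vigor, deformity, size, chlorosis and overall look. Propagules were placed in shallow silt loam (top 0.5 cm) under a continuous 1.5–3 cm flood and grown in the greenhouse.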

[11] = tested on: ABUTH (Abutilon theophrasti); assay: Postemergence herbicidal evaluation; type: in vivo, Medic.; conditions: rate 0.0620 kg/ha
In short: as §1

ORYSAT (Rice, Tebonnet) [12] = assay: Postemergence herbicidal evaluation; type: in vivo, Oryza sativa, (L.) Tebonnet; conditions: rate 0.0620 kg/ha
In short: as §1

[13] = tested on: ECHORC (Echinochloa oryzoides); assay: Flooded paddy, preemergence weed control; type: in vivo, Echinochloa oryzoides (Ard.) Fritsch.; conditions: rate 0.1250 kg/ha, rated 3-4 weeks after treatment, 0-9 rating scale
In short: as §3

[14] = tested on: TRZAWR (Wheat, Winter, cv Riband); assay: Postemergence herbicidal evaluation; type: in vivo, Triticum aestivum; conditions: rate 0.0620 kg/ha
In short: as §1

[15] = tested on: GLXMAW (Soybean, Williams); assay: Postemergence herbicidal evaluation; type: in vivo, Glycine max, (L.) Merr. cv Williams; conditions: rate 0.0620 kg/ha
In short: as §1

[16] = tested on: MOOVA (Monochoria vaginalis); assay: Flooded paddy, preemergence weed control; type: in vivo, Presl.; conditions: rate 0.1250 kg/ha, rated 3-4 weeks after treatment, 0-9 rating scale
In short: as §3

GALAP (Galium aparine) [17] = assay: Preemergence herbicidal evaluation; type: in vivo; conditions: Rate 0.2500 kg/ha; preemergence; rated 4-5 weeks after treatment
In short: as §2

[18] = tested on: ABUTH (Abutilon theophrasti); assay: Preemergence herbicidal evaluation; type: in vivo, Medic.; conditions: Rate 0.2500 kg/ha; preemergence; rated 4-5 weeks after treatment
[19] = tested on: SAGPY (Sagittaria pygmaea); assay: Flooded paddy, preemergence weed control; type: in vivo, L.; conditions: rate 0.1250 kg/ha, rated 3-4 weeks after treatment, 0-9 rating scale
In short: as §3

[20] = tested on: CHEAL (Chenopodium album); assay: Preemergence herbicidal evaluation; type: in vivo, L.; conditions: Rate 0.2500 kg/ha; preemergence; rated 4-5 weeks after treatment
In short: as §2

[21] = tested on: CASOB (Cassia obtusifolia); assay: Preemergence herbicidal evaluation; type: in vivo, L.; conditions: Rate 0.2500 kg/ha; preemergence; rated 4-5 weeks after treatment
In short: as §2

[22] = tested on: AMBEL (Ambrosia artemisifolia); assay: Preemergence herbicidal evaluation; type: in vivo, L.; conditions: Rate 0.2500 kg/ha; preemergence; rated 4-5 weeks after treatment
In short: as §2

[23] = tested on: ECHCG (Echinochloa crus-galli); assay: Postemergence herbicidal evaluation; type: in vivo, (L.) Beau; conditions: rate 0.0620 kg/ha
In short: as §1

[24] = tested on: GLXMAW (Soybean, Williams); assay: Preemergence herbicidal evaluation; type: in vivo, Glycine max, (L.) Merr. cv Williams; conditions: Rate 0.2500 kg/ha; preemergence; rated 4-5 weeks after treatment
SETVI (Setaria viridis) [25] = assay: Preemergence herbicidal evaluation; type: in vivo, (L.) Beau; conditions: Rate 0.2500 kg/ha; preemergence; rated 4-5 weeks after treatment
In short: as §2

[26] = tested on: ECHCG (Echinochloa crus-galli); assay: Preemergence herbicidal evaluation; type: in vivo, (L.) Beau; conditions: Rate 0.2500 kg/ha; preemergence; rated 4-5 weeks after treatment
In short: as §2

GALAP (Galium aparine) [27] = assay: Postemergence herbicidal evaluation; type: in vivo; conditions: rate 0.0620 kg/ha
In short: as §1

ORYSAT (Rice, Tebonnet) [28] = assay: Preemergence herbicidal evaluation; type: in vivo, Oryza sativa, (L.) Tebonnet; conditions: Rate 0.2500 kg/ha; preemergence; rated 4-5 weeks after treatment
[29] = tested on: CYPSE (Cyperus serotinus); assay: Flooded paddy, preemergence weed control; type: in vivo, Rottb.; conditions: rate 0.1250 kg/ha, rated 3-4 weeks after treatment, 0-9 rating scale
Experimental: Results of herbicide evaluation are expressed on a rating scale (0-9). The scale is based upon a visual observation of plant stand, vigor, malformation, size, chlorosis and overall plant appearance as compared with a control.
Preemergence herbicidal activity under flooded paddy conditions is determined as follows: plant seeds or propagating organs are planted in the top 0.5 cm of silt loam soil in 32 oz. plastic containers with a diameter of 10.5 cm and no drainage holes. Water is added to these containers and maintained at 1.5 to 3 cm above the soil surface for the duration of the experiment. The test compounds are applied as aqueous/acetone mixtures 50/50 v/v pipetted directly into the flood water to give the equivalent of about 0.0080 to 0.1250 kg/ha of active ingredient. The treated containers are placed on greenhouse benches and cared for in accordance with conventional greenhouse procedures. Three to four weeks after treatment, the test is terminated and each container is examined and herbicidal effect rated according to the rating system provided in Example 87.

Row | Structure (SMILES) | Postemergence herbicidal rating, CHEAL [1] | Postemergence herbicidal rating, CASOB [2] | Postemergence herbicidal rating, AMBEL [3] | Postemergence herbicidal rating, ZEAMX (ZEAMX (Corn, Field) [4]) | ZEAMX preemergence herbicidal rating (ZEAMX (Corn, Field) [5]) | IPOHE preemergence herbicidal rating [6] | TRZAWR preemergence herbicidal rating [7] | herbicidal rating, ORYSAT (rice tolerance) (ORYSAT (Rice, Tebonnet) [8]) | Postemergence herbicidal rating, IPOHE [9] | Postemergence herbicidal rating, SETVI (SETVI (Setaria viridis) [10]) | herbicidal rating, CYPIR (CYPIR (Cyperus iria)) | Postemergence herbicidal rating, ABUTH [11] | Postemergence herbicidal rating, ORYSAT (ORYSAT (Rice, Tebonnet) [12]) | herbicidal rating, ECHORC [13] | Postemergence herbicidal rating, TRZAWR [14] | Postemergence herbicidal rating, GLXMAW [15] | herbicidal rating, MOOVA [16] | GALAP preemergence herbicidal rating (GALAP (Galium aparine) [17]) | ABUTH preemergence herbicidal rating [18] | herbicidal rating, SAGPY [19] | also measured
1 | Cn1c(C(F)(F)F)cc(=O)n(-c2ccc3snc(-c4cccnc4)c3c2)c1=O [Compound 11, 1-methyl-3-[3-(3-pyridyl)-1,2-benzisothiazol-5-yl]-6-(trifluoromethyl)uracil] | 8.0 | 1.0 | 9.0 | 5.5 | 5.5 | 7.0 | 4.0 | 3.0 | 9.0 | 7.0 | 9.0 | 9.0 | 3.5 | 5.0 | 3.5 | 6.5 | 9.0 | 9.0 | 9.0 | 0.0 | CHEAL preemergence herbicidal rating [20]: 9.0; CASOB preemergence herbicidal rating [21]: 9.0; AMBEL preemergence herbicidal rating [22]: 9.0; Postemergence herbicidal rating, ECHCG [23]: 0.0; GLXMAW preemergence herbicidal rating [24]: 7.5; SETVI preemergence herbicidal rating (SETVI (Setaria viridis) [25]): 9.0; ECHCG preemergence herbicidal rating [26]: 8.0; Postemergence herbicidal rating, GALAP (GALAP (Galium aparine) [27]): 6.0; ORYSAT preemergence herbicidal rating (ORYSAT (Rice, Tebonnet) [28]): 5.0; herbicidal rating, CYPSE [29]: 0.0
2 | C[C@@H]1O[C@@H]1c1nsc2ccc(-n3c(=O)cc(C(F)(F)F)n(C)c3=O)cc12 [Compound 13, 3-[3-[(1R,2S)-1,2-epoxypropyl]-1,2-benzisothiazol-5-yl]-1-methyl-6-(trifluoromethyl)uracil] | 6.0 | 5.0 | 9.0 | 5.0 | 7.0 | 9.0 | 5.0 | 7.5 | 7.0 | 7.0 | 8.0 | 9.0 | 3.0 | 6.0 | 3.0 | 7.0 | 9.0 | 9.0 | 9.0 | 4.0 | CHEAL preemergence herbicidal rating [20]: 9.0; CASOB preemergence herbicidal rating [21]: 9.0; AMBEL preemergence herbicidal rating [22]: 9.0; Postemergence herbicidal rating, ECHCG [23]: 3.0; GLXMAW preemergence herbicidal rating [24]: 7.5; SETVI preemergence herbicidal rating (SETVI (Setaria viridis) [25]): 9.0; ECHCG preemergence herbicidal rating [26]: 9.0; Postemergence herbicidal rating, GALAP (GALAP (Galium aparine) [27]): 9.0; ORYSAT preemergence herbicidal rating (ORYSAT (Rice, Tebonnet) [28]): 7.5; herbicidal rating, CYPSE [29]: 6.5
3 | C[C@H]1O[C@@H]1c1nsc2ccc(-n3c(=O)cc(C(F)(F)F)n(C)c3=O)cc12 [Compound 14, 3-[3-[(1R,2R)-1,2-epoxypropyl]-1,2-benzisothiazol-5-yl]-1-methyl-6-(trifluoromethyl)uracil] | 8.0 | 2.0 | 9.0 | 6.0 | 8.5 | 9.0 | 9.0 | 9.0 | 9.0 | 3.0 | 9.0 | 9.0 | 6.0 | 8.0 | 6.5 | 7.5 | 9.0 | 9.0 | 9.0 | 9.0 | CHEAL preemergence herbicidal rating [20]: 9.0; CASOB preemergence herbicidal rating [21]: 9.0; AMBEL preemergence herbicidal rating [22]: 9.0; Postemergence herbicidal rating, ECHCG [23]: 2.0; GLXMAW preemergence herbicidal rating [24]: 8.0; SETVI preemergence herbicidal rating (SETVI (Setaria viridis) [25]): 9.0; ECHCG preemergence herbicidal rating [26]: 9.0; Postemergence herbicidal rating, GALAP (GALAP (Galium aparine) [27]): 9.0; ORYSAT preemergence herbicidal rating (ORYSAT (Rice, Tebonnet) [28]): 9.0; herbicidal rating, CYPSE [29]: 8.0
